Patent US20210382058A1, “PATIENT SELECTION FOR TREATMENT OF MYC POSITIVE CANCERS WITH INDENOISOQUINOLINES” (Purdue Research Foundation, priority 2020, published 2021)
Where two headings read alike, the source gives them in different places.

Tests used:
human topoisomerase I = target: T1, human topoisomerase I (Homo sapiens, UniProt P11387); details: relative topoisomerase I inhibition levels, previously determined, six levels (0 - 5, +++++ = 5); cited from earlier work
T1 sequence (P11387 1-765): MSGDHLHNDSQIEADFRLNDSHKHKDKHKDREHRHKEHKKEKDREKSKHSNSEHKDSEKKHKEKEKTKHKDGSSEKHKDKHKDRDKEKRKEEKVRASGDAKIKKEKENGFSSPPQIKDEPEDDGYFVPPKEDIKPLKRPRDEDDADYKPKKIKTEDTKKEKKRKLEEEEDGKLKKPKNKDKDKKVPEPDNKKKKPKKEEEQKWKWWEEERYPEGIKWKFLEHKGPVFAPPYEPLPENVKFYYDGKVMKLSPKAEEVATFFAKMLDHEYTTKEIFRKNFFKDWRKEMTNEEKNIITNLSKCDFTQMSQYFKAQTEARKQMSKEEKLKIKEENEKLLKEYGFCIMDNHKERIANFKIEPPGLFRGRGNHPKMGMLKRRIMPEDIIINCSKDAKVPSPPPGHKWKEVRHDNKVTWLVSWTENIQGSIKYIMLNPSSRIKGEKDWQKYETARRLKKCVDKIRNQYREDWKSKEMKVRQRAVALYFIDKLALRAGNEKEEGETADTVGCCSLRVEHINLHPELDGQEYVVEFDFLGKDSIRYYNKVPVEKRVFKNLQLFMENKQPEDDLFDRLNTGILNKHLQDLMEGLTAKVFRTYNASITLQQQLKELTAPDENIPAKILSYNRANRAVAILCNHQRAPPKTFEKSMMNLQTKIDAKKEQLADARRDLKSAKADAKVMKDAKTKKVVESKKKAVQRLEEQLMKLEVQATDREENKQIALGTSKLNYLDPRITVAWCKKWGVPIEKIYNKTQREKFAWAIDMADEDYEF

MycG4 (MycPu22 DNA) = assay: 1H NMR titration of MycPu22 DNA; type: binding, human; details: 150 μM DNA, 25° C., pH 7, 100 mM K+
Outline: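 Oligonucleotide at 150 (so in the source) in 75 mM KCl, 25 mM phosphate pH 7.0, 90/10% H2O/D2O, heat-annealed at 95 °C then slowly cooled to form G4. Compound titrated at 0.5 to 4 equivalents and 1H spectra recorded at 25 °C on a 500 MHz instrument with Watergate water suppression.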

NCI-60 cancer cell lines = assay: NCI-60 cancer cell line drug screen (GI50, MGM); type: cell-based, human; details: Homo sapiens; for GI50: read-out: Antiproliferative Activities [GI50 (μM)]
Description: Cancer cells were incubated with the test compounds at five concentrations ranging from 100 μM to 10 nM for 48 h. […] The approximate average of GI50 values across the entire panel of NCI-60 cancer cell lines for each compound was recorded as the MGM value.

[1] = test system: MYC protein expression in MCF-7 breast cancer cells; assay: Western blotting of MYC protein level in MCF-7 cells; type: cell-based, human; details: MCF-7, 0.5, 1, 2, and 4 μM, 24 h
Outline: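 MCF-7 cells were exposed to compounds at 0.5, 1, 2 and 4 μM for 24 hours at 37° C. MYC was detected by immunoblot with ECL, using rabbit anti-MYC (1:1000) and anti-GAPDH (1:2000) as loading control.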

SMILES: COc1cnc2c(c1)C(=O)c1c-2n(CCCN2CCCC2)c(=O)c2cc([N+](=O)[O-])ccc12 [Compound 9]
- Top1 Inhibiton (human topoisomerase I): ++ (medium inhibition, ++, MYC expression inhibited at 2.0 μM, or no clear dose-dependent MYC inhibition)
- binding to MycG4 by 1H NMR titration (MycG4 (MycPu22 DNA)): less well-defined MycG4 complexes
- GI50 (NCI-60 cancer cell lines; 786-0, Renal Cancer, 786-0): 0.03 µM
- GI50 (NCI-60 cancer cell lines; A549, Non-Small Cell Lung Cancer, A549/ATCC): 0.05 µM
- GI50 (NCI-60 cancer cell lines; ACHN, Renal Cancer, ACHN): < 0.01 µM
- GI50 (NCI-60 cancer cell lines; BT-549, Breast Cancer, BT-549): 0.35 µM
- GI50 (NCI-60 cancer cell lines; CAKI-1, Renal Cancer, CAKI-1): < 0.01 µM
- GI50 (NCI-60 cancer cell lines; CCRF-CEM, Leukemia, CCRF-CEM): < 0.01 µM
- GI50 (NCI-60 cancer cell lines; COLO 205, Colon Cancer, COLO 205): 0.04 µM
- GI50 (NCI-60 cancer cell lines; DU-145, Prostate Cancer, DU-145): 0.02 µM
- GI50 (NCI-60 cancer cell lines; EKVX, Non-Small Cell Lung Cancer, EKVX): 0.3 µM
- GI50 (NCI-60 cancer cell lines; HCC 2998, Colon Cancer, HCC-2998): 0.16 µM
- GI50 (NCI-60 cancer cell lines; HCT-15, Colon Cancer, HCT-15): 0.06 µM
- GI50 (NCI-60 cancer cell lines; HCT-116, Colon Cancer, HCT-116): < 0.01 µM
- GI50 (NCI-60 cancer cell lines; HL-60, Leukemia, HL-60(TB)): 0.03 µM
- GI50 (NCI-60 cancer cell lines; HOP-62, Non-Small Cell Lung Cancer, HOP-62): < 0.01 µM
- GI50 (NCI-60 cancer cell lines; HOP-92, Non-Small Cell Lung Cancer, HOP-92): 0.55 µM
- GI50 (NCI-60 cancer cell lines; HT-29, Colon Cancer, HT29): 0.02 µM
- GI50 (NCI-60 cancer cell lines; Hs-578T, Breast Cancer, HS 578T): 1.91 µM
- GI50 (NCI-60 cancer cell lines; IGROV-1, Ovarian Cancer, IGROV1): 0.02 µM
- GI50 (NCI-60 cancer cell lines; K562, Leukemia, K-562): 0.02 µM
- GI50 (NCI-60 cancer cell lines; KM12, Colon Cancer, KM12): 0.14 µM
- GI50 (NCI-60 cancer cell lines; LOX IMVI, Melanoma, LOX IMVI): < 0.01 µM
- GI50 (NCI-60 cancer cell lines; Leukemia, SR): < 0.01 µM
- GI50 (NCI-60 cancer cell lines; MCF7, Breast Cancer, MCF7): < 0.01 µM
- GI50 (NCI-60 cancer cell lines; MDA-MB-231, Breast Cancer, MDA-MB-231/ATCC): 0.68 µM
- GI50 (NCI-60 cancer cell lines; MDA-MB-435, Melanoma, MDA-MB-435): 0.06 µM
- GI50 (NCI-60 cancer cell lines; MDA-MB-468, Breast Cancer, MDA-MB-468): 0.03 µM
- GI50 (NCI-60 cancer cell lines; MOLT-4, Leukemia, MOLT-4): < 0.01 µM
- GI50 (NCI-60 cancer cell lines; Malme-3M, Melanoma, MALME-3M): 0.06 µM
- GI50 (NCI-60 cancer cell lines; Melanoma, M14): < 0.01 µM
- GI50 (NCI-60 cancer cell lines; NCI-H23, Non-Small Cell Lung Cancer, NCI-H23): 0.03 µM
- GI50 (NCI-60 cancer cell lines; NCI-H226, Non-Small Cell Lung Cancer, NCI-H226): 0.1 µM
- GI50 (NCI-60 cancer cell lines; NCI-H322M, Non-Small Cell Lung Cancer, NCI-H322M): 0.05 µM
- GI50 (NCI-60 cancer cell lines; NCI-H460, Non-Small Cell Lung Cancer, NCI-H460): < 0.01 µM
- GI50 (NCI-60 cancer cell lines; NCI-H522, Non-Small Cell Lung Cancer, NCI-H522): 0.06 µM
- GI50 (NCI-60 cancer cell lines; OVCAR-3, Ovarian Cancer, OVCAR-3): 0.06 µM
- GI50 (NCI-60 cancer cell lines; OVCAR-4, Ovarian Cancer, OVCAR-4): 0.08 µM
- GI50 (NCI-60 cancer cell lines; OVCAR-5, Ovarian Cancer, OVCAR-5): 0.16 µM
- GI50 (NCI-60 cancer cell lines; OVCAR-8, Ovarian Cancer, OVCAR-8): 0.09 µM
- GI50 (NCI-60 cancer cell lines; Ovarian Cancer, NCl/ADR-RES): 0.03 µM
- GI50 (NCI-60 cancer cell lines; Prostate Cancer, PC-3): 0.07 µM
- GI50 (NCI-60 cancer cell lines; RPMI-8226, Leukemia, RPMI-8226): 0.04 µM
- GI50 (NCI-60 cancer cell lines; RXF 393, Renal Cancer, RXF 393): 0.06 µM
- GI50 (NCI-60 cancer cell lines; Renal Cancer, U0-31): < 0.01 µM
- GI50 (NCI-60 cancer cell lines; SF-268, CNS Cancer, SF-268): 0.02 µM
- GI50 (NCI-60 cancer cell lines; SF-295, CNS Cancer, SF-295): < 0.01 µM
- GI50 (NCI-60 cancer cell lines; SF-539, CNS Cancer, SF-539): 0.03 µM
- GI50 (NCI-60 cancer cell lines; SK-MEL-2, Melanoma, SK-MEL-2): 1.01 µM
- GI50 (NCI-60 cancer cell lines; SK-MEL-5, Melanoma, SK-MEL-5): 0.07 µM
- GI50 (NCI-60 cancer cell lines; SK-MEL-28, Melanoma, SK-MEL-28): 10.6 µM
- GI50 (NCI-60 cancer cell lines; SK-OV-3, Ovarian Cancer, SK-OV-3): 0.03 µM
- GI50 (NCI-60 cancer cell lines; SN12C, Renal Cancer, SN12C): 0.04 µM
- GI50 (NCI-60 cancer cell lines; SNB-19, CNS Cancer, SNB-19): 0.04 µM
- GI50 (NCI-60 cancer cell lines; SNB-75, CNS Cancer, SNB-75): 0.05 µM
- GI50 (NCI-60 cancer cell lines; SW-620, Colon Cancer, SW-620): < 0.01 µM
- GI50 (NCI-60 cancer cell lines; T47D, Breast Cancer, T-47D): 0.02 µM
- GI50 (NCI-60 cancer cell lines; TK-10, Renal Cancer, TK-10): 0.37 µM
- GI50 (NCI-60 cancer cell lines; U-251, CNS Cancer, U251): 0.01 µM
- GI50 (NCI-60 cancer cell lines; UACC-62, Melanoma, UACC-62): 0.02 µM
- GI50 (NCI-60 cancer cell lines; UACC-257, Melanoma, UACC-257): 0.18 µM
- mean GI50 across NCI-60 panel (MGM) (NCI-60 cancer cell lines; average of GI50 values across the entire panel of NCI-60 cancer cell lines): 45 nM
- MYC-inhibitory effect (MYC protein, western blot) [1]: clear MYC-inhibitory effect
